Measurements taken from ChEMBL document CHEMBL1136273, “Design and synthesis of factor Xa inhibitors and their prodrugs” (Bioorg Med Chem Lett, 2003).

Tested on: not listed separately
Assay: Oral bioavailability in dog
Format: ADME, organism-based, Canis lupus familiaris
Conditions: in vivo

| Compound | bioavailability |
| --- | --- |
| N=C(N)c1cccc(/C(=C(/F)C(=O)Nc2ccc(-c3ccccc3S(N)(=O)=O)cc2)n2cccn2)c1 | < 5% |
| N=C(NO)c1cccc(/C(=C(/F)C(=O)Nc2ccc(-c3ccccc3S(N)(=O)=O)cc2)n2cccn2)c1 | 25% |

Target: Prothrombin (Homo sapiens, UniProt P00734)
Assay: Inhibitory concentration required against Thrombin
Conditions: not given

| Compound | IC50 |
| --- | --- |
| C/C(=C(\CC(N)=O)C(=O)Nc1ccc(-c2ccccc2S(N)(=O)=O)cc1)c1cccc(C(=N)N)c1 | 1.6 µM |
| C/C(=C1\CC(=O)N(c2ccc(-c3ccccc3S(N)(=O)=O)cc2)C1=O)c1cccc(C(=N)N)c1 | 0.67 µM |

Second part, the molecule after the results:

| IC50 | Compound |
| --- | --- |
| 10.7 µM | C/C(=C1\CC(=O)N(c2ccc(C(=O)N3CCCC3)cc2)C1=O)c1cccc(C(=N)N)c1 |
| 0.076 µM | C/C(=C1\CC(=O)N(c2ccc(C(C)(C)C)cc2)C1=O)c1cccc(C(=N)N)c1 |

Target: Coagulation factor X (Homo sapiens, UniProt P00742)
Assay: Inhibitory concentration to coagulation factor X
Conditions: not given

Coagulation factor X, sequence (P00742 41-179 limits assumed): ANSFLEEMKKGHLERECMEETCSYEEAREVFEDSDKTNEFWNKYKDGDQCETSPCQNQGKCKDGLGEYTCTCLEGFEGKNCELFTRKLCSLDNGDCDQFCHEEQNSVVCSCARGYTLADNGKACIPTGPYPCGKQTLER
Coagulation factor X, sequence (P00742 235-488 limits assumed): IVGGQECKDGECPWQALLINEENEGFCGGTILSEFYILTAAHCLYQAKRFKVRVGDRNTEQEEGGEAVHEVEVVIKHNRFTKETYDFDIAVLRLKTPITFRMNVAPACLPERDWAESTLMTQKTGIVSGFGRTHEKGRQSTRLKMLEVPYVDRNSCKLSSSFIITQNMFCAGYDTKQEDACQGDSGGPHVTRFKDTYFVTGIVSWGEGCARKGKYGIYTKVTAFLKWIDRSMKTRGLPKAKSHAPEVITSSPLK

| Compound | IC50 |
| --- | --- |
| C/C(=C(\F)C(=O)Nc1ccc(-c2ccccc2S(N)(=O)=O)cc1)c1cccc(C(=N)NNc2ccccc2)c1 | 0.75 µM |
| C/C(=C(\F)C(=O)Nc1ccc(-c2ccccc2S(N)(=O)=O)cc1)c1ccc2[nH]nc(N)c2c1 | 5.91 µM |
| C/C(=C(\F)C(=O)Nc1ccc(-c2ccccc2S(N)(=O)=O)cc1F)c1cccc(C(=N)NO)c1 | 1.59 µM |
| C/C(=C(\F)C(=O)Nc1ccc(-c2ccccc2S(N)(=O)=O)cc1)c1cccc(C(=N)N2CCC2)c1 | 0.89 µM |
| C/C(=C1\CC(=O)N(c2ccc(-c3ccccc3S(N)(=O)=O)cc2)C1=O)c1cccc(C(=N)NO)c1 | 0.71 µM |
| C/C(=C(\F)C(=O)Nc1ccc(-c2ccccc2S(N)(=O)=O)cc1Cl)c1cccc(C(=N)NO)c1 | 0.75 µM |
| C/C(=C(\F)C(=O)Nc1ccc(-c2ccccc2S(N)(=O)=O)cc1)c1cccc(C(=N)NO)c1 | 0.44 µM |
| C/N=C(\N)c1cccc(/C(C)=C(/F)C(=O)Nc2ccc(-c3ccccc3S(N)(=O)=O)cc2)c1 | 0.89 µM |
| C/C(=C(\F)C(=O)Nc1ccc(-c2ccccc2S(N)(=O)=O)cc1)c1cccc(C(=N)NN(C)C)c1 | 0.49 µM |
| N=C(NO)c1cccc(/C(=C(/F)C(=O)Nc2ccc(-c3ccccc3S(N)(=O)=O)cc2)n2cccn2)c1 | 3.79 µM |
| C/C(=C(\F)C(=O)Nc1ccc(-c2ccccc2S(N)(=O)=O)cc1Br)c1cccc(C(=N)NO)c1 | 1.18 µM |

Now from value to molecule:

| IC50 | Compound |
| --- | --- |
| 0.42 µM | C/C(=C(\F)C(=O)Nc1ccc(-c2ccccc2S(N)(=O)=O)cc1)c1cccc(C(=N)NNCC(F)(F)F)c1 |
| 0.253 µM | C/C(=C(\F)C(=O)Nc1ccc(-c2ccccc2S(N)(=O)=O)cc1)c1cccc(C(=N)NC#N)c1 |
| 0.18 µM | C/C(=C1\CC(=O)N(c2ccc(C(=O)N3CCCC3)cc2)C1=O)c1cccc(C(=N)N)c1 |
| 0.12 µM | CC(c1cccc(C(=N)N)c1)C1CC(=O)N(c2ccc(-c3ccccc3S(N)(=O)=O)cc2)C1=O (stereo unspecified) |
| 0.11 µM | C/C(=C(\F)C(=O)Nc1ccc(-c2ccccc2S(N)(=O)=O)cc1F)c1cccc(C(=N)NN)c1 |
| 0.078 µM | C/C(=C1\CC(=O)N(c2ccc(-c3ccccc3S(N)(=O)=O)cc2)C1=O)c1cccc(C(=N)NN)c1 |
| 0.057 µM | C/C(=C(\F)C(=O)Nc1ccc(-c2ccccc2S(N)(=O)=O)cc1Br)c1cccc(C(=N)NN)c1 |
| 0.048 µM | CNNC(=N)c1cccc(/C(C)=C2/CC(=O)N(c3ccc(-c4ccccc4S(N)(=O)=O)cc3)C2=O)c1 |
| 0.041 µM | C/C(=C(\F)C(=O)Nc1ccc(-c2ccccc2S(N)(=O)=O)cc1Cl)c1cccc(C(=N)NN)c1 |
| 0.029 µM | C/C(=C1\CC(=O)N(c2ccc(C(C)(C)C)cc2)C1=O)c1cccc(C(=N)N)c1 |
| 0.028 µM | CNNC(=N)c1cccc(/C(C)=C(/F)C(=O)Nc2ccc(-c3ccccc3S(N)(=O)=O)cc2)c1 |
| 0.001 µM | N=C(N)c1cccc(/C(=C(/F)C(=O)Nc2ccc(-c3ccccc3S(N)(=O)=O)cc2)n2cccn2)c1 |

Tested on: not listed separately
Assay: Cmax in rats
Format: ADME, organism-based
Conditions: rat, in vivo

| Compound | Cmax |
| --- | --- |
| C/C(=C(\F)C(=O)Nc1ccc(-c2ccccc2S(N)(=O)=O)cc1Br)c1cccc(C(=N)N)c1 | 0.168 µg/mL |
| C/C(=C(\F)C(=O)Nc1ccc(-c2ccccc2S(N)(=O)=O)cc1Br)c1cccc(C(=N)NO)c1 | 0.63 µg/mL |
